Assay results: US20030045515A1, “Combination medicament for treatment of neoplastic diseases” (priority 2001, published 2003)

Columns and labels:
Type in all cases: in vivo, NMRI nu/nu female mice
[1] = tested on: NYH cells (small cell lung cancer); assay: Tumour growth in nude mice inoculated with NYH cells; details: NYH tumours, 14 days
Experimental: (§1) The experiments were conducted with NMRI nu/nu female mice (M&B, Ry, Denmark) kept under semi-sterile conditions. The mice were 6 weeks old on arrival, and they were allowed to acclimatise for approximately 3 weeks before the experiments were initiated. The bedding was autoclaved at 121° C. for 20 minutes, the food was sterilised by irradiation, and the drinking water was filtered through a 0.2 μm filter. All handling of the mice was done in laminar flow benches.
Each experiment employed 40-60 mice which were inoculated in both flanks and left for the tumours to develop. Following that, the mice were divided into groups, each containing 10 mice and thus 18-20 tumors, according to the size of the tumour, i.e. large, medium or small. Unless stated otherwise all doses have been given daily.
(§2) The tumours were measured using digital callipers before treatment start (=baseline), twice weekly for the duration of the study, and at the end of the study. Tumour area (A) was calculated as the product of the two measured perpendicular diameters; A=d1×d2. For mice with only one tumour, the area of this tumour was calculated and used in the statistical analysis. For mice with two tumours, the average of the two tumour areas was calculated and used in the statistical analysis.
For each animal, an individual curve of the tumour areas observed during the study was plotted against time. The trend was an increasing growth rate of the tumours. In order to ensure an approximate linear correspondence between tumour data and time, the observations were transformed by taking the square root of the tumour areas, corresponding to tumour size in one dimension. As a summary measure of the repeated measurements of tumour areas during the study (tumour growth rate), the estimated slope of the individual curves of the square root transformed curves was used [Matthews, Br. Med. J., 300, 230-235, 1990]. The slope should be interpreted as a measure of the tumour growth rate and was estimated using linear regression analysis by time on the observations during the study. Within each group, the mean of the tumour growth rate was calculated.
The NYH cell line originates from a patient with small cell lung cancer. The cell line was obtained from Rigshospitalet, Copenhagen, Denmark.
The mice were inoculated with 1×10^7 NYH cells in 0.2 ml in each flank, and the tumours were left to grow for approximately 4 days. The duration of the dosing was 14 days.

[2] = tested on: HT 1080 cells (human fibrosarcoma); assay: Tumour growth in nude mice inoculated with HT 1080 cells; details: HT 1080 tumours, 14 days
Experimental: The experiments were conducted with NMRI nu/nu female mice (M&B, Ry, Denmark) kept under semi-sterile conditions. The mice were 6 weeks old on arrival, and they were allowed to acclimatise for approximately 3 weeks before the experiments were initiated. The bedding was autoclaved at 121° C. for 20 minutes, the food was sterilised by irradiation, and the drinking water was filtered through a 0.2 μm filter. All handling of the mice was done in laminar flow benches. Each experiment employed 40-60 mice which were inoculated in both flanks and left for the tumours to develop. Following that, the mice were divided into groups, each containing 10 mice and thus 18-20 tumors, according to the size of the tumour, i.e. large, medium or small. Unless stated otherwise all doses have been given daily. The tumours were measured using digital callipers before treatment start (=baseline), twice weekly for the duration of the study, and at the end of the study. Tumour area (A) was calculated as the product of the two measured perpendicular diameters; […] For mice with only one tumour, the area of this tumour was calculated and used in the statistical analysis. For mice with two tumours, the average of the two tumour areas was calculated and used in the statistical analysis. For each animal, an individual curve of the tumour areas observed during the study was plotted against time. The trend was an increasing growth rate of the tumours. In order to ensure an approximate linear correspondence between tumour data and time, the observations were transformed by taking the square root of the tumour areas, corresponding to tumour size in one dimension. As a summary measure of the repeated measurements of tumour areas during the study (tumour growth rate), the estimated slope of the individual curves of the square root transformed curves was used [Matthews, Br. Med. […] The slope should be interpreted as a measure of the tumour growth rate and was estimated using linear regression analysis by time on the observations during the study. Within each group, the mean of the tumour growth rate was calculated. The HT 1080 cell line originates from a patient with human fibrosarcoma, and it was obtained from ATCC. The mice were inoculated with 2×10^6 HT 1080 cells in 0.2 ml in each flank, and the tumours were left to grow for approximately 4 days.

[3] = tested on: Colo 320 DM cells (human colon cancer); assay: Tumour growth in nude mice inoculated with Colo 320 DM cells; details: Colo 320 DM tumours, 21 days, control 0.55
Experimental: as §1
Each experiment employed 40-60 mice which were inoculated in both flanks and left for the tumours to develop. Following that, the mice were divided into groups, each containing 10 mice and thus 18-20 tumors, according to the size of the tumour, i.e. large, medium or small. […]
as §2
For each animal, an individual curve of the tumour areas observed during the study was plotted against time. […] Within each group, the mean of the tumour growth rate was calculated. […]

In the case of N.N.[Cl][Pt][Cl] [Cisplatin], the Mean increment/day ([1]; cisplatin 5 mg/kg i.p. once weekly, control 0.90) is reported as 0.32 mm/day.
N#CNC(=Nc1ccncc1)NCCCCCCOc1ccc(Cl)cc1 [Compound A, N-cyano-N′-(6-(4-chlorophenoxy)hexyl)-N″(4-pyridyl)guanidine] gave a Mean increment/day ([1]; compound A 15 mg/kg p.o. daily, cisplatin experiment, control 0.90) of 0.02 mm/day, a Mean increment/day ([1]; compound A 15 mg/kg p.o. daily, cyclophosphamide experiment, control 0.61) of 0.26 mm/day and a Mean increment/day ([1]; compound A 15 mg/kg p.o. daily, etoposide experiment, control 0.67) of 0.34 mm/day. For the same compound, the Mean increment/day ([2]; compound A 50 mg/kg p.o. daily, TNP-470 experiment, control 0.73) was 0.14 mm/day, the Mean increment/day ([2]; compound A 50 mg/kg p.o. daily, etoposide experiment, control 0.45) was 0.21 mm/day and the Mean increment/day ([2]; compound A 50 mg/kg p.o. daily, paclitaxel experiment, control 0.67) was 0.30 mm/day. It also gave a Mean increment/day ([2]; compound A 50 mg/kg p.o. daily, seocalcitol experiment, control 0.98) of 0.24 mm/day and a Mean increment/day ([3]; compound A 50 mg/kg p.o. daily) of 0.22 mm/day.
O=P1(N(CCCl)CCCl)NCCCO1 (centres unmarked) [Cyclophosphamide] showed a Mean increment/day ([1]; cyclophosphamide 7 mg/kg p.o. daily, control 0.61) of 0.40 mm/day.
COc1cc([C@@H]2c3cc4c(cc3[C@@H](O[C@@H]3O[C@@H]5CO[C@@H](C)O[C@H]5[C@H](O)[C@H]3O)[C@H]3COC(=O)[C@H]23)OCO4)cc(OC)c1O [Etoposide] showed a Mean increment/day ([1]; etoposide 10 mg/kg p.o. daily, control 0.67) of 0.41 mm/day and a Mean increment/day ([2]; etoposide 10 mg/kg p.o. daily, control 0.45) of -0.01 mm/day.
With CC(=O)O[C@H]1C(=O)[C@@]2(C)[C@H]([C@H](OC(=O)c3ccccc3)[C@]3(O)C[C@H](OC(=O)[C@H](O)[C@@H](NC(=O)c4ccccc4)c4ccccc4)C(C)=C1C3(C)C)[C@]1(OC(C)=O)CO[C@@H]1C[C@@H]2O [Paclitaxel] the Mean increment/day ([2]; paclitaxel 1 mg/kg s.c. daily, control 0.67) was 0.39 mm/day and the Mean increment/day ([2]; paclitaxel 2 mg/kg s.c. daily, control 0.67) was 0.15 mm/day.
With C=C1/C(=C\C=C2/CCC[C@]3(C)[C@@H]([C@H](C)/C=C/C=C/C(O)(CC)CC)CC[C@@H]23)C[C@@H](O)C[C@@H]1O [Seocalcitol] the Mean increment/day ([2]; seocalcitol 2 μg/kg p.o. daily, control 0.98) was 0.95 mm/day.
For CO[C@@H]1[C@H](OC(=O)NC(=O)CCl)CC[C@]2(CO2)[C@H]1[C@@]1(C)O[C@@H]1CC=C(C)C [TNP-470], the Mean increment/day ([2]; TNP-470 9 mg/kg s.c. daily, control 0.73) was 0.51 mm/day and the Mean increment/day ([3]; TNP-470 9 mg/kg s.c. daily) was 0.29 mm/day.
